Among the data in US20220242870A1, “HETEROCYCLE-FUSED PYRIMIDINE DERIVATIVE AND USE THEREOF” (VORONOI Inc., priority 2019, published 2022) are IC50 and GI50 values, retold here.

Molecules are shown by their SMILES. A value given as a limit tells only on which side of the number the result lay.

The target in one test is T1, human FLT3-ITD enzyme (Homo sapiens, UniProt P36888).
T1 sequence (P36888 1-993): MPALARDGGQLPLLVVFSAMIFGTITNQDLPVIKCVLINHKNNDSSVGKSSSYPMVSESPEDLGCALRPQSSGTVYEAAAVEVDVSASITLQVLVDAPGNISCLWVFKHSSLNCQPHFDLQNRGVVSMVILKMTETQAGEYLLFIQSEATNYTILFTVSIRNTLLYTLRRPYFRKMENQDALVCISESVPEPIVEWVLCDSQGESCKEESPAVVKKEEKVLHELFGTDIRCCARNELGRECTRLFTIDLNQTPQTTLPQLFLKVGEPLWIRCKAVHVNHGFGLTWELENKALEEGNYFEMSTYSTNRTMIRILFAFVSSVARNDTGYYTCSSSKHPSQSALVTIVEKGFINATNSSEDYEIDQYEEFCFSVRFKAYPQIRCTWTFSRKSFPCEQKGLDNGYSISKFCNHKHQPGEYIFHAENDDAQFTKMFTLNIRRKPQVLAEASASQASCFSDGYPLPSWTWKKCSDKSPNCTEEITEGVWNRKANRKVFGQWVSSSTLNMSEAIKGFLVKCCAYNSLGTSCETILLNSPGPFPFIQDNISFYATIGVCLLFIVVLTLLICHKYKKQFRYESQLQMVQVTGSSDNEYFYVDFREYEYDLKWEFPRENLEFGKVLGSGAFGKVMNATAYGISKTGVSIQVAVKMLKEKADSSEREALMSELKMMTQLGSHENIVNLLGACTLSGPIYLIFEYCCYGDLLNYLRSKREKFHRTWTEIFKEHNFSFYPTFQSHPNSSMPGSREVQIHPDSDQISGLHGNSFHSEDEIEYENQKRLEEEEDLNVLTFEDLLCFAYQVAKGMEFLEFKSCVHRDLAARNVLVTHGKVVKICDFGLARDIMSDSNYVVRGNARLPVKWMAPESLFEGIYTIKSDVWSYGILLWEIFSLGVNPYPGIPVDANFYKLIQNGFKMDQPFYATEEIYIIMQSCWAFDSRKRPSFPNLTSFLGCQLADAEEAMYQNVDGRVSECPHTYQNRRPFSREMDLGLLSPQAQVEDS
Nature of the test: FLT3 enzyme inhibitory ability (ADP-Glo kinase assay). The conditions noted are these: human FLT3-ITD enzyme 10 ng, ATP 10 μM, 25° C. 1 hour. The format is biochemical. Summed up:
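Purified human FLT3-ITD (10 ng) with 10 μM ATP and specific substrate in 40 mM Tris-HCl pH 7.4, 20 mM MgCl2, 0.5 mg/mL BSA, 50 μM DTT, 1 h at 25 °C. ADP formation read by ADP-Glo luminescence; IC50 (nM) versus solvent-treated control.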
In general terms: In ADP-Glo the light output rises with the ADP produced.

The next test deals with T2, human GST-HPK1 (1-346) (Homo sapiens, UniProt Q92918).
T2 construct: purified human GST-HPK1 (1-346, Signalchem) enzyme; purchased Signalchem
T2 sequence (Q92918 1-346): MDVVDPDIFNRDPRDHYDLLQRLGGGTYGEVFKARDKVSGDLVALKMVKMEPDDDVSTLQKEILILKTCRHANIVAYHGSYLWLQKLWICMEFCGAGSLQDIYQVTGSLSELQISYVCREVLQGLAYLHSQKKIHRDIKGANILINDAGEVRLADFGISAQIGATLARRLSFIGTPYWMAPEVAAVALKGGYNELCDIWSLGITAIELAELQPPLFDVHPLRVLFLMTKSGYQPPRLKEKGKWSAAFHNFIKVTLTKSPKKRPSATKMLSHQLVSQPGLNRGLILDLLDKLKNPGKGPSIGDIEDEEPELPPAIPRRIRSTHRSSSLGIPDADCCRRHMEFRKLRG
Nature of the test: HPK1 enzyme inhibitory ability (ADP-Glo kinase assay). Type of test: biochemical. The conditions noted are these: human GST-HPK1 3 ng, ATP 3 uM, 25° C. 2 hours. Summed up:
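Human GST-HPK1(1-346), 3 ng, reacted with 3 uM ATP and specific substrate in 40 mM Tris-HCl pH 7.4, 20 mM MgCl2, 0.5 mg/mL BSA, 50 uM DTT for 2 h at 25° C. ADP-Glo luminescence read; IC50 (nM) relative to untreated solvent control.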

A further test deals with MV4-11 cells. In words: AML cell proliferation inhibitory activity (CellTiter-Glo). Type of test: cell-based. Particulars: Homo sapiens, 72 hours. As to the method:
The inhibitory activities of the example compounds according to the present invention on the proliferation of acute myeloid leukemia (AML) cells expressing the FLT3 mutant gene were evaluated. Specifically, RS4;11 and MV4-11 cells as acute myeloid leukemia cells expressing the FLT3 mutant gene were cultured in RPMI-1640 (Invitrogen) adding 10% FBS. The cells were seeded into each well of a clear bottom white 96-well plate (Corning) at 3000 to 5000 cells 24 hours before compound treatment. The compound was diluted in DMSO (diluted each three-fold, to a total of 12 concentrations) and injected at 0.5 μL each so as to be a final concentration of 0.3 nM to 50 μM. After 72 hours of the compound treatment, they were treated with CellTiter-Glo Luminescent Cell Viability assay (Promega) and stored at room temperature for 10 minutes, and luminescence intensities were measured with a reader (SynergyNeo, Biotek) to count viable cells. Each experiment was performed three times repeatedly. The result values were calculated as the cell growth rate (%) compared to the control treated with the solvent. The graph was derived using the GraphPad Prism program (version 5.0), the GI50 (nM) values were calculated, and the results were shown in Table 3 below.
For orientation: In ATP-based viability assays light output follows the ATP content of the culture.

The subject of another test is MCF-7 cells. Nature of the test: Breast cancer cell line proliferation inhibitory activity (CellTiter-Glo 2.0). The format is cell-based. The conditions noted are these: Homo sapiens, MCF7, 120 hours. The procedure, abridged:
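MCF-7 cells exposed to a 12-point, 3-fold dilution series (final 0.00005–10 μM) for 120 h at 37 °C. Viability read by CellTiter-Glo 2.0 luminescence, expressed as percent of vehicle-treated cells. GI50 (nM) derived from the curves.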

Regarding `COc1cc(Nc2nc(N3OCC[C@H]3c3ccccc3)c3sccc3n2)ccc1N1CCC(N2CCN(C)CC2)CC1` [Example 57, (S)-N-(3-methoxy-4-(4-(4-methylpiperazin-1-yl)piperidin-1-yl)phenyl)-4-(3-phenylisoxazolidin-2-yl)thieno[3,2-d]pyrimidin-2-amine], the IC50 (commonly the concentration that inhibits the measured activity by half) against human FLT3-ITD enzyme was 250 to 500 nM; against human GST-HPK1 (1-346) it was greater than 500 nM. The GI50 with MV4-11 cells and with MCF-7 cells was greater than 500 nM each time.
For `CN1CCN(c2ccc(Nc3nc(N4OCC[C@H]4c4ccccc4)c4sccc4n3)cc2)CC1` [Example 59, (S)-N-(4-(4-methylpiperazin-1-yl)phenyl)-4-(3-phenylisoxazolidin-2-yl)thieno[3,2-d]pyrimidin-2-amine], the IC50 on human FLT3-ITD enzyme is no less than 250 nM; against human GST-HPK1 (1-346) it was greater than 500 nM. The GI50 in the test with MV4-11 cells and in the test with MCF-7 cells was greater than 500 nM each time.
Turning to `COc1cc(Nc2nc(N3N=CCC3c3ccccc3)c3cc[nH]c3n2)ccc1N1CCC(N2CCN(C)CC2)CC1` (centres unmarked) [Example 69, N-(3-methoxy-4-(4-(4-methylpiperazin-1-yl)piperidin-1-yl)phenyl)-4-(5-phenyl-4,5-dihydro-1H-pyrazol-1-yl)-7H-pyrrolo[2,3-d]pyrimidin-2-amine], the figures for the IC50 against human FLT3-ITD enzyme and on human GST-HPK1 (1-346) were 250 to 500 nM and greater than 500 nM, respectively. Also, the GI50 in the test with MV4-11 cells and with MCF-7 cells was greater than 500 nM in each case.
`COc1cccc([C@@H]2CCON2c2nc(Nc3ccc(N4CCN(C)CC4)cc3)nc3[nH]ccc23)c1` [Example 75, (S)-4-(3-(3-methoxyphenyl)isoxazolidin-2-yl)-N-(4-(4-methylpiperazin-1-yl)phenyl)-7H-pyrrolo[2,3-d]pyrimidin-2-amine]: the IC50 against human FLT3-ITD enzyme is 250 to 500 nM; against human GST-HPK1 (1-346), greater than 500 nM. Besides, the GI50 with MV4-11 cells and in the test on MCF-7 cells was greater than 500 nM throughout.
Consider `CN1CCN(c2ccc(Nc3nc(N4OCC[C@H]4c4cccc(F)c4)c4cc[nH]c4n3)cc2)CC1` [Example 76, (S)-4-(3-(3-fluorophenyl)isoxazolidin-2-yl)-N-(4-(4-methylpiperazin-1-yl)phenyl)-7H-pyrrolo[2,3-d]pyrimidin-2-amine], for which the IC50 against human FLT3-ITD enzyme and against human GST-HPK1 (1-346) was no less than 250 nM each time. Further, the GI50 with MV4-11 cells and in the test with MCF-7 cells was greater than 500 nM throughout.
As for `CN1CCN(c2ccc(Nc3nc(N4OCC[C@H]4c4cccs4)c4cc[nH]c4n3)cc2)CC1` [Example 77, (S)-N-(4-(4-methylpiperazin-1-yl)phenyl)-4-(3-(thiophen-2-yl)isoxazolidin-2-yl)-7H-pyrrolo[2,3-d]pyrimidin-2-amine], the concentration for half-maximal inhibition (IC50) against human FLT3-ITD enzyme and against human GST-HPK1 (1-346) was no less than 250 nM in each case. Also, the GI50 (commonly the concentration giving 50% growth inhibition) in the test on MV4-11 cells is 250 to 500 nM; in the test with MCF-7 cells, greater than 500 nM.
As to `CN1CCN(c2ccc(Nc3nc(N4OCC[C@H]4c4cccnc4)c4cc[nH]c4n3)cc2)CC1` [Example 78, (S)-N-(4-(4-methylpiperazin-1-yl)phenyl)-4-(3-(pyridin-3-yl)isoxazolidin-2-yl)-7H-pyrrolo[2,3-d]pyrimidin-2-amine], the IC50 at human FLT3-ITD enzyme and against human GST-HPK1 (1-346) was no less than 250 nM in each case. Besides, the 50% growth inhibitory concentration (GI50) in the test with MV4-11 cells and with MCF-7 cells was greater than 500 nM each time.
For the compound `CN(C)C1CCN(c2ccc(Nc3nc(N4OCC[C@H]4c4ccccc4)c4cc[nH]c4n3)cc2)CC1` [Example 83, (S)-N-(4-(4-(dimethylamino)piperidin-1-yl)phenyl)-4-(3-phenylisoxazolidin-2-yl)-7H-pyrrolo[2,3-d]pyrimidin-2-amine], the IC50 at human FLT3-ITD enzyme and against human GST-HPK1 (1-346) was no less than 250 nM throughout. Moreover, the GI50 in the test on MV4-11 cells is no less than 250 nM; in the test with MCF-7 cells, greater than 500 nM.
For the compound `COc1cc(Nc2nc(N3OCC[C@H]3c3ccccc3)c3cc[nH]c3n2)ccc1N1CCC(N2CCN(C)CC2)CC1` [Example 87, (S)-N-(3-methoxy-4-(4-(4-methylpiperazin-1-yl)piperidin-1-yl)phenyl)-4-(3-phenylisoxazolidin-2-yl)-7H-pyrrolo[2,3-d]pyrimidin-2-amine], the IC50 was 250 to 500 nM against human FLT3-ITD enzyme and no less than 250 nM at human GST-HPK1 (1-346). Moreover, the values for the GI50 with MV4-11 cells and in the test with MCF-7 cells were no less than 250 nM and greater than 500 nM, respectively.
As to `OCCN1CCN(C2CCN(c3ccc(Nc4nc(N5OCC[C@H]5c5ccccc5)c5cc[nH]c5n4)cc3)CC2)CC1` [Example 89, (S)-2-(4-(1-(4-((4-(3-phenylisoxazolidin-2-yl)-7H-pyrrolo[2,3-d]pyrimidin-2-yl)amino)phenyl)piperidin-4-yl)piperazin-1-yl)ethan-1-ol], the IC50 against human FLT3-ITD enzyme was 250 to 500 nM; against human GST-HPK1 (1-346) it was no less than 250 nM. Further, the GI50 is 250 to 500 nM with MV4-11 cells and greater than 500 nM with MCF-7 cells.
`COc1cc(C(=O)N2CCOCC2)ccc1Nc1nc(N2OCC[C@H]2c2ccccc2)c2cc[nH]c2n1` [Example 96, (S)-(3-methoxy-4-((4-(3-phenylisoxazolidin-2-yl)-7H-pyrrolo[2,3-d]pyrimidin-2-yl)amino)phenyl)(morpholino)methanone]: the IC50 on human FLT3-ITD enzyme was no less than 250 nM; at human GST-HPK1 (1-346) it was greater than 500 nM. In addition, the GI50 in the test on MV4-11 cells and in the test with MCF-7 cells was greater than 500 nM in each case.
In the case of `CCN(CC)CCCOc1c(C)cc(Nc2nc(N3OCC[C@H]3c3ccccc3)c3cc[nH]c3n2)cc1C` [Example 101, (S)-N-(4-(3-(diethylamino)propoxy)-3,5-dimethylphenyl)-4-(3-phenylisoxazolidin-2-yl)-7H-pyrrolo[2,3-d]pyrimidin-2-amine], the IC50 against human FLT3-ITD enzyme and on human GST-HPK1 (1-346) was no less than 250 nM each time. For the same compound, the GI50 with MV4-11 cells and in the test on MCF-7 cells was greater than 500 nM in each case.
On to `c1ccc([C@@H]2CCON2c2nc(Nc3ccc4c(c3)CNCC4)nc3[nH]ccc23)cc1` [Example 104, (S)-N-(4-(3-phenylisoxazolidin-2-yl)-7H-pyrrolo[2,3-d]pyrimidin-2-yl)-1,2,3,4-tetrahydroisoquinolin-7-amine], for which the IC50 against human FLT3-ITD enzyme and against human GST-HPK1 (1-346) was no less than 250 nM throughout. Moreover, the GI50 in the test with MV4-11 cells and with MCF-7 cells was greater than 500 nM each time.
With `CN1CCc2ccc(Nc3nc(N4OCC[C@H]4c4ccccc4)c4cc[nH]c4n3)cc2C1` [Example 105, (S)-2-methyl-N-(4-(3-phenylisoxazolidin-2-yl)-7H-pyrrolo[2,3-d]pyrimidin-2-yl)-1,2,3,4-tetrahydroisoquinolin-7-amine], the IC50 against human FLT3-ITD enzyme and against human GST-HPK1 (1-346) was no less than 250 nM each time. Also, the results for the GI50 in the test with MV4-11 cells and with MCF-7 cells were 250 to 500 nM and greater than 500 nM, respectively.
